Key:
Assay type in all cases: in vivo
Myzus persicae = Myzus persicae (green peach aphid): feeding/contact activity; conditions: 144 h, application rate 200 ppm, aphid population of mixed ages, 6 days after infestation, read-out: mortality
Procedure: (§1) Sunflower leaf discs were placed onto agar in a 24-well microtiter plate and sprayed with aqueous test solutions prepared from 10'000 ppm DMSO stock solutions. After drying, the leaf discs were infested with an aphid population of mixed ages. The samples were assessed for mortality 6 days after infestation.

Diabrotica balteata = Diabrotica balteata (corn root worm), sprayed maize sprouts; conditions: 96 h, application rate 200 ppm, L2 larvae, 4 days after infestation, read-out: effect in at least one of the two categories (mortality or growth inhibition)
Outline: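 Maize sprouts on agar sprayed with aqueous dilutions of DMSO stocks, dried, then infested with L2 larvae (6–10 per well). Mortality and growth inhibition scored against untreated controls 4 days after infestation, at 200 ppm application rate.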

Spodoptera littoralis [1] = experiment: Spodoptera littoralis (Egyptian cotton leaf worm), uptake by lettuce roots from agar; conditions: 144 h, read-out: effect in at least one of the three categories (mortality, anti-feeding, or growth inhibition);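 note: 12.5 ppm test rate in agar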
Outline: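 Compound from 10'000 ppm DMSO stocks was mixed into agar, and lettuce grew on it for 7 days to take it up via roots. Cut leaves were infested with Spodoptera eggs; mortality, anti-feedant effect and growth inhibition scored 6 days later versus untreated samples.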

Plutella xylostella = Plutella xylostella (diamond back moth), artificial diet; conditions: 120 h, application rate 200 ppm, L2 larvae, 5 days after infestation, read-out: effect in at least one of the two categories (mortality or growth inhibition)
Outline: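 Artificial diet in 24-well plates treated with aqueous test solutions made from 10'000 ppm DMSO stocks, dried, then infested with L2 larvae (10 to 15 per well). Mortality and growth inhibition scored against untreated samples 5 days after infestation; activity cut-off at least 80% in either category at 200 ppm.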

Spodoptera littoralis [2] = experiment: Spodoptera littoralis (Egyptian cotton leaf worm), sprayed cotton leaf discs; conditions: foliar, 72 h, application rate 200 ppm, L1 larvae, 3 days after infestation, read-out: control (mortality, anti-feeding effect, growth inhibition)
Outline: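 Cotton leaf discs on agar sprayed with aqueous test solutions made from 10'000 ppm DMSO stock; after drying, infested with five L1 larvae. Mortality, anti-feeding and growth inhibition scored versus untreated samples 3 days after infestation; control counted when any category exceeds untreated.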

Euschistus heros = Euschistus heros (neotropical brown stink bug), sprayed soybean leaves; conditions: 120 h, application rate 200 ppm, N2 nymphs, 5 days after infestation, read-out: effect in at least one of the two categories (mortality or growth inhibition)
Outline: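 Soybean leaves on agar sprayed with aqueous dilutions of DMSO stocks, dried, then infested with N2 nymphs. Mortality and growth inhibition scored against untreated samples 5 days after infestation; application rate 200 ppm.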

Thrips tabaci = Thrips tabaci (onion thrips): feeding/contact activity; conditions: 144 h, application rate 200 ppm, Thrips population of mixed ages, 6 days after infestation, read-out: mortality
Procedure: as §1, with “on” for “onto”, “in” for “in a”, “plates” for “plate”, “drying” for “drying,”, “a Thrips” for “an aphid”

Tetranychus urticae = Tetranychus urticae (two-spotted spider mite): feeding/contact activity; conditions: 192 h, application rate 200 ppm, mixed population (mobile stages), 8 days after infestation, read-out: mortality
Procedure: Bean leaf discs on agar in 24-well microtiter plates were sprayed with aqueous test solutions prepared from 10'000 ppm DMSO stock solutions. After drying the leaf discs were infested with a mite population of mixed ages. The samples were assessed for mortality on mixed population (mobile stages) 8 days after infestation.

CCS(=O)(=O)N1C[C@@H](NC(=O)c2ccc(C3=NO[C@@](c4cc(Cl)cc(C(F)(F)F)c4)(C(F)(F)F)C3)cc2Cl)CO1 [Compound A122]
≥ 80%: mortality at 200 ppm (Myzus persicae) | percent effect (mortality or growth inhibition) at 200 ppm (Diabrotica balteata) | percent control (mortality, anti-feedant effect or growth inhibition) at 12.5 ppm (Spodoptera littoralis [1]) | percent effect (mortality or growth inhibition) at 200 ppm (Plutella xylostella) | mortality at 200 ppm (Spodoptera littoralis [2]) | percent effect (mortality or growth inhibition) at 200 ppm (Euschistus heros) | mortality at 200 ppm (Thrips tabaci) | mortality at 200 ppm (Tetranychus urticae)

CS(=O)(=O)N1C[C@@H](NC(=O)c2ccc(C3=NO[C@@](c4cc(Cl)cc(C(F)(F)F)c4)(C(F)(F)F)C3)cc2Cl)CO1 [Compound A123]
≥ 80%: mortality at 200 ppm (Myzus persicae) | percent effect (mortality or growth inhibition) at 200 ppm (Diabrotica balteata) | percent control (mortality, anti-feedant effect or growth inhibition) at 12.5 ppm (Spodoptera littoralis [1]) | percent effect (mortality or growth inhibition) at 200 ppm (Plutella xylostella) | mortality at 200 ppm (Spodoptera littoralis [2]) | percent effect (mortality or growth inhibition) at 200 ppm (Euschistus heros) | mortality at 200 ppm (Thrips tabaci) | mortality at 200 ppm (Tetranychus urticae)

CCNS(=O)(=O)N1C[C@@H](NC(=O)c2ccc(C3=NO[C@@](c4cc(Cl)c(Cl)c(Cl)c4)(C(F)(F)F)C3)cc2Cl)CO1 [Compound A125, 2-chloro-N-[(4R)-2-(ethylsulfamoyl)isoxazolidin-4-yl]-4-[(5S)-5-(3,4,5-trichlorophenyl)-5-(trifluoromethyl)-4H-isoxazol-3-yl]benzamide]
≥ 80%: mortality at 200 ppm (Myzus persicae) | percent effect (mortality or growth inhibition) at 200 ppm (Diabrotica balteata) | percent control (mortality, anti-feedant effect or growth inhibition) at 12.5 ppm (Spodoptera littoralis [1]) | percent effect (mortality or growth inhibition) at 200 ppm (Plutella xylostella) | mortality at 200 ppm (Spodoptera littoralis [2]) | percent effect (mortality or growth inhibition) at 200 ppm (Euschistus heros) | mortality at 200 ppm (Thrips tabaci) | mortality at 200 ppm (Tetranychus urticae)

CNS(=O)(=O)N1C[C@@H](NC(=O)c2ccc(C3=NO[C@@](c4cc(Cl)c(Cl)c(Cl)c4)(C(F)(F)F)C3)cc2Cl)CO1 [Compound A126, 2-chloro-N-[(4R)-2-(methylsulfamoyl)isoxazolidin-4-yl]-4-[(5S)-5-(3,4,5-trichlorophenyl)-5-(trifluoromethyl)-4H-isoxazol-3-yl]benzamide]
≥ 80%: mortality at 200 ppm (Myzus persicae) | percent effect (mortality or growth inhibition) at 200 ppm (Diabrotica balteata) | percent control (mortality, anti-feedant effect or growth inhibition) at 12.5 ppm (Spodoptera littoralis [1]) | percent effect (mortality or growth inhibition) at 200 ppm (Plutella xylostella) | mortality at 200 ppm (Spodoptera littoralis [2]) | percent effect (mortality or growth inhibition) at 200 ppm (Euschistus heros) | mortality at 200 ppm (Thrips tabaci) | mortality at 200 ppm (Tetranychus urticae)

CCNS(=O)(=O)N1C[C@@H](NC(=O)c2ccc(C3=NO[C@@](c4cc(Cl)cc(C(F)(F)F)c4)(C(F)(F)F)C3)cc2Cl)CO1 [Compound A128]
≥ 80%: mortality at 200 ppm (Myzus persicae) | percent effect (mortality or growth inhibition) at 200 ppm (Diabrotica balteata) | percent control (mortality, anti-feedant effect or growth inhibition) at 12.5 ppm (Spodoptera littoralis [1]) | percent effect (mortality or growth inhibition) at 200 ppm (Plutella xylostella) | mortality at 200 ppm (Spodoptera littoralis [2]) | percent effect (mortality or growth inhibition) at 200 ppm (Euschistus heros) | mortality at 200 ppm (Thrips tabaci) | mortality at 200 ppm (Tetranychus urticae)

CCN(C)S(=O)(=O)N1C[C@@H](NC(=O)c2ccc(C3=NO[C@@](c4cc(Cl)cc(C(F)(F)F)c4)(C(F)(F)F)C3)cc2Cl)CO1 [Compound A130, 2-chloro-4-[(5S)-5-[3-chloro-5-(trifluoromethyl)phenyl]-5-(trifluoromethyl)-4H-isoxazol-3-yl]-N-[(4R)-2-[ethyl(methyl)sulfamoyl]isoxazolidin-4-yl]benzamide]
≥ 80%: mortality at 200 ppm (Myzus persicae) | percent effect (mortality or growth inhibition) at 200 ppm (Diabrotica balteata) | percent control (mortality, anti-feedant effect or growth inhibition) at 12.5 ppm (Spodoptera littoralis [1]) | percent effect (mortality or growth inhibition) at 200 ppm (Plutella xylostella) | mortality at 200 ppm (Spodoptera littoralis [2]) | percent effect (mortality or growth inhibition) at 200 ppm (Euschistus heros) | mortality at 200 ppm (Thrips tabaci) | mortality at 200 ppm (Tetranychus urticae)
